Article PMC12909347, “Disconnect between in vitro and in vivo efficacy of the MPS1 inhibitor NTRC 0066-0 against glioblastoma” (Cellular Oncology, 2026)

Key:
[1] = tested on: orthotopic E98 GBM tumors; experiment: Quantification of mitotic errors in E98 tumors; format: in vivo, mice; settings: end-stage E98 tumors, 5/10 mg/kg b.i.d.x7d
Protocol: Tumor-bearing mouse brains were formalin-fixed, paraffin-embedded and coronal Sect. (10 μm) were sliced using an RM2255 microtome (Leica, Wetzlar, Germany). Sections were subsequently deparaffinized using xylene, incubated in citrate buffer for antigen retrieval, blocked with 4% (w/v) BSA in TBS-T, incubated with rabbit-α-pH3^Ser10 (1:250 for 3 h at room temperature; Merck Millipore, Burlington, MA), incubated with goat-α-rabbit-AF568 (1:250 for 45 min at room temperature; Thermo Fisher Scientific, Waltham, MA) and mounted with Vectashield hardset antifade mounting medium with DAPI (Vector Laboratories, Burlingame, CA). Mitotic errors were imaged and scored using a Deltavision ultra high resolution microscope (Applied Precision Inc., Issaquah, WA).

T98G = experiment: Cell survival assay (crystal violet), continuous exposure; format: cell-based, human; settings: Fig. 1A
Protocol: (§1) Wells were pre-coated with poly-ornithine (15 µg/ml for 3 h at room temperature) and subsequently with laminin (7.5 µg/ml for 1 h at 37 °C) prior to seeding GSCs to make them adherent without inducing differentiation. […] Cells were plated in 24-wells plates at low cell densities (2,000–10,000 cells/well) and exposed to different concentrations of NTRC0066-0 24 h later. NTRC0066-0 was dissolved in DMSO (Sigma-Aldrich) for in vitro experiments and final DMSO concentrations never exceeded 0.1%. When untreated wells were confluent (approximately 6–10 days after seeding, dependent on the cell line), cells were fixed and stained using a solution containing 0.5% crystal violet (w/v; Sigma-Aldrich) and 6% glutaraldehyde (v/v; Honeywell, Morris Plains, NJ). Plates were imaged using a Chemi-Doc XRS+ (Bio-rad, Hercules, CA) and analyzed using the Colony Area plugin of ImageJ [24]. IC50 curves were fitted and plotted using the ‘log(inhibitor) vs. normalized response – Variable slope’ fitting procedure of GraphPad Prism v10.3 (GraphPad Software, La Jolla, CA). Monotherapy curves were corrected for untreated controls.

E98 = experiment: as above; format: cell-based, human; settings: Fig. 1A
Protocol: as §1

LN-751 = experiment: as above; format: cell-based, human; settings: LN-751, continuous exposure, Fig. 1A
Protocol: as §1

U87 = experiment: as above; format: cell-based, human; settings: Fig. 1A
Protocol: as §1

HS683 = experiment: as above; format: cell-based, human; settings: Fig. 1A
Protocol: as §1

LN-428 = experiment: as above; format: cell-based, human; settings: LN-428, continuous exposure, Fig. 1A
Protocol: as §1

[2] = Pharmacokinetics and brain penetration in Abcb1a/b;Abcg2-/- mice; format: in vivo; settings: for Plasma AUC, Abcb1a/b;Abcg2-/- vs WT mice: 10 mg/kg
Protocol: (§2) The pharmacokinetics of NTRC 0066-0 were analyzed in wild-type (WT), Abcb1a/b^−/−, Abcg2^−/−, Abcb1a/b^−/−;Abcg2^−/− and Abcb1a/b^−/−;Abcg2^−/−;Abcc4^−/− FVB mice. All knockout mice strains have been developed at the Netherlands Cancer Institute. For i.v. administration, NTRC0066-0 was formulated in DMSO: Cremophor EL: saline (1:1:8 v/v) and injected at a dose of 5 mg/kg. For i.p and oral administration, NTRC0066-0 was administered at 5, 10 or 20 mg/kg as indicated. Serial blood sampling was done by tail vein bleeding at specific time points. At terminal time points, blood was drawn by cardiac puncture followed by tissue collection. Plasma was obtained from whole blood by centrifugation (5 min, 5,000 rpm, 4 °C) and tissues were weighed and homogenized using a FastPrep®-24 (MP-Biomedicals, NY) in 1% (w/v) bovine serum albumin (Sigma-Aldrich) in water.
(§3) NTRC 0066-0 was extracted from in vitro and in vivo samples using liquid–liquid extraction with diethyl ether. Another MPS-1 inhibitor, Compound 5 (Cpd-5), was added to the samples as an internal standard. The dried organic phase was reconstituted in 30% methanol in water (v/v). Samples were measured using an LC-MS/MS system comprising an UltiMate 3000 LC Systems (Dionex, Sunnyvale, CA) and an API 4000 mass spectrometer (Sciex, Framingham, MA). Samples were injected on to a Securityguard C18 pre-column (Phenomenex, Utrecht, The Netherlands) connected to a ZORBAX Extend-C18 column (Agilent, Santa Clara, CA). Elution was done at a flow rate of 0.2 mL/min using a 5 min gradient from 20% to 95% B (mobile phase A was 0.1% HCOOH in water (v/v) and mobile phase B was methanol). 95% B was maintained for 3 min followed by re-equilibration at 20% B. Multiple reaction monitoring parameters were 566.2/391.4 (NTRC0066-0) and 581.6/397.0 (internal standard). Analyst® 1.6.2 software (Sciex) was used for system control and data analysis.
(§4) PK solver was used to determine pharmacokinetic parameters. The standard error of the oral bioavailability was calculated using the formula below: […]

P-gp = experiment: Brain penetration in Abcb1a/b-/- mice; format: in vivo; settings: 1 h after 5 mg/kg i.v.
Protocol: as §2, §3

[3] = Pharmacokinetics and brain penetration in wild-type FVB mice; format: in vivo
Protocol: as §2, §3, §4

[4] = Abcb1a/b;Abcg2-/-, i.p. 10 mg/kg
[5] = Abcb1a/b;Abcg2-/-, p.o. 10 mg/kg

Structure (SMILES): CCc1cccc(CC)c1NC(=O)c1ccn2c1CCc1cnc(Nc3ccc(N4CCN(C)CC4)cc3OC)nc1-2 [NTRC 0066-0]
- Number of mitotic errors in tumors [1]: did not increase the number of mitotic errors
- IC50 (T98G): 0.018 µM
- IC50 (E98): 0.023 µM
- IC50 (LN-751): 0.037 µM
- IC50 (U87): 0.031 µM
- IC50 (HS683): 0.042 µM
- IC50 (LN-428): 0.039 µM
- Lowest plasma trough concentration ([2]; 5 mg/kg p.o. morning + 10 mg/kg p.o. about 8 h later, 7 days (5/10 mg/kg b.i.d.x7d)): above 20 nM
- Brain concentration vs threshold level of in vitro efficacy ([2]; 1, 4, 8 and 24 h after 20 mg/kg p.o.): remained well above the threshold level of in vitro efficacy
- Concentration at 24 h, Abcb1a/b;Abcg2-/- vs WT mice ([2]; 24 h after 10 mg/kg): about 5 fold
- Plasma concentration ([2]; 24 h after 20 mg/kg p.o.): 6 nM
- Brain penetration (brain vs plasma) ([2]; Abcb1a/b;Abcg2-/- mice): 20 fold
- Brain-plasma ratio ([2]; Abcb1a/b;Abcg2-/- mice): above 20
- Oral bioavailability (relative to i.p.) ([2]; Abcb1a/b;Abcg2-/- mice): about 50%
- Brain concentration compared to Abcb1a/b-/- mice ([2]; Abcb1a/b;Abcg2-/- mice, 1 h after 5 mg/kg i.v.): did not display further increased
- Brain-to-plasma ratio ([2]; Abcb1a/b;Abcg2-/- mice, 24 h after 10 mg/kg p.o. or i.p.): approximately 20
- Cmax [2, 4]: 1700 ± 160 nM
- MRT [2, 4]: 4.3 ± 0.4 h
- t1/2 [2, 4]: 3.4 ± 0.4 h
- tmax [2, 4]: 0.8 ± 0.3 h
- Plasma AUCi.p. ([2]; Abcb1a/b;Abcg2-/-, i.p. 10 mg/kg, 0-∞): 11,000 ± 2200 nM.h
- Cmax [2, 5]: 550 ± 52 nM
- MRT [2, 5]: 5.2 ± 0.5 h
- t1/2 [2, 5]: 3.6 ± 0.2 h
- tmax [2, 5]: 3.3 ± 1.5 h
- F (bioavailability) ([2]; Abcb1a/b;Abcg2-/-, p.o. 10 mg/kg relative to i.p.): 43 ± 11%
- Plasma AUCp.o. ([2]; Abcb1a/b;Abcg2-/-, p.o. 10 mg/kg, 0-∞): 4.7 ± 0.71 µM·h
- Plasma AUC, Abcb1a/b;Abcg2-/- vs WT mice ([2]; after i.p. dosing): about 4 fold
- Plasma AUC, Abcb1a/b;Abcg2-/- vs WT mice ([2]; after oral dosing): ~3 fold
- Brain concentration compared to WT mice (P-gp): markedly increased
- Brain-plasma ratio compared to WT mice (P-gp): markedly increased
- Plasma concentration compared to WT mice (P-gp): similar
- Oral bioavailability (relative to i.p.) ([3]; WT mice): about 50%
- Brain-plasma ratio ([3]; WT mice, 1 h after 5 mg/kg i.v.): approximately 4
- Brain-to-plasma ratio ([3]; WT mice, 24 h after 10 mg/kg p.o. or i.p.): approximately 20
- Cmax ([3]; WT, i.p. 10 mg/kg): 780 ± 130 nM
- MRT ([3]; WT, i.p. 10 mg/kg): 3.2 ± 0.4 h
- t1/2 ([3]; WT, i.p. 10 mg/kg): 2.5 ± 0.2 h
- tmax ([3]; WT, i.p. 10 mg/kg): 0.5 ± 0.3 h
- Plasma AUCi.p. ([3]; WT, i.p. 10 mg/kg, 0-∞): 2.8 ± 0.45 µM·h
- Cmax ([3]; WT, p.o. 10 mg/kg): 180 ± 6.7 nM
- MRT ([3]; WT, p.o. 10 mg/kg): 4.7 ± 0.2 h
- t1/2 ([3]; WT, p.o. 10 mg/kg): 2.8 ± 0.2 h
- tmax ([3]; WT, p.o. 10 mg/kg): 1.8 ± 1.5 h
- F (bioavailability) ([3]; WT, p.o. 10 mg/kg relative to i.p.): 59 ± 11%
- Plasma AUCp.o. ([3]; WT, p.o. 10 mg/kg, 0-∞): 1.7 ± 0.15 µM·h
